Test results reported in US20260217682A1, “STILBENE COMPOUND AND PREPARATION METHOD THEREFOR AND USE THEREOF” (THE HONG KONG UNIVERSITY OF SCIENCE AND TECHNOLOGY, priority 2022, published 2026).

Test system: human HaCaT cells
Assay: Cytotoxicity assay (MTT colorimetric assay)
Type: cell-based
Details: 0.3-100 μM, 48 hours of treatment
Experimental: HaCaT cells were inoculated at a density of 5.0×10^3 cells/mL in a 96-well culture plate, with 100 μL per well. […] After 48 hours of treatment, 10 μL of MTT solution was added to each well, and the cells were incubated at 37° C. for an additional 4 hours. The culture was then terminated, the supernatant was discarded, and 150 μL of DMSO was added to each well. The plate was shaken for 10 minutes for full dissolution. The absorbance (OD) of each well was measured at 490 nm using an ELISA reader. The wells without drug treatment served as controls, and cell viability was calculated using the formula: Cell viability

`Oc1ccc(C=Cc2cc(O)cc(O)c2)cc1` [resveratrol] was tested, and the “cytotoxicity (cell viability)” value was “neither compound RE-1 nor resveratrol exhibited significant cytotoxicity”.
